Assay results from patent US4087416A, “New heptapeptides and methods for their production” (Parke, Davis & Company, priority 1976, dated 1978).

Tested on: LRF (luteinizing hormone releasing factor) induced luteinizing hormone (LH) release
Test: In vitro LRF antagonist test in rat anterior pituitary cell cultures
Assay type: cell-based
Excerpt: Heptapeptides of this invention were screened for LRF antagonist activity in vitro using rat anterior pituitary cell cultures as described by Vale et. al. [Endocrinology, 91, 562 (1972)]. The inhibition of LRF (luteinizing hormone releasing factor) induced luteinizing hormone (LH) release into the culture medium is the endpoint in this in vitro bioassay.

[1] = Molar Conc. 1×10^-7, second experiment (LRF 3.5×10^-10)
[2] = Molar Conc. 2×10^-7, second experiment (LRF 3.5×10^-10)
[3] = Molar Conc. 3.5×10^-7, second experiment (LRF 3.5×10^-10)
[4] = Molar Conc. 1×10^-6, first experiment (LRF 5×10^-10)
[5] = Molar Conc. 1×10^-7, first experiment (LRF 5×10^-10)
[6] = Molar Conc. 1×10^-8, first experiment (LRF 5×10^-10)
[7] = Molar Conc. 3.5×10^-7, first experiment (LRF 5×10^-10)
[8] = Molar Conc. 3.5×10^-8, first experiment (LRF 5×10^-10)

With “N^α -t-Butoxycarbonyl-L-prolyl-N^im -benzyl-L-histidyl-N^im -benzyl-L-histidyl-O-benzyl-L-seryl-O-benzyl-L-tyrosyl-L-tryptophyl-D-alanine methyl ester” the “% LH Release Inhibition” value [1] was 65%, the “LH Value” [1] was 23.32 ng/mL and the “% LH Release Inhibition” value [2] was 58%. The “LH Value” [2] was 24.98 ng/mL, the “% LH Release Inhibition” value [3] was 74% and the “LH Value” [3] was 20.80 ng/mL.

“N^α -t-Butoxycarbonyl-L-prolyl-N^im -benzyl-L-histidyl-N^im -benzyl L-histidyl-O-benzyl-L-seryl-O-benzyl-L-tyrosyl-L-tryptophyl-D-alanine N-ethylamide” was tested, and the “% LH Release Inhibition” value [4] was 101%, the “LH Value” [4] was 11.36 ng/mL and the “% LH Release Inhibition” value [5] was 77%. For the same substance, the “LH Value” [5] was 17.83 ng/mL, the “% LH Release Inhibition” value [6] was 24% and the “LH Value” [6] was 31.92 ng/mL. The “% LH Release Inhibition” value [7] was 99%, the “LH Value” [7] was 11.90 ng/mL and the “% LH Release Inhibition” value [8] was 55%. The “LH Value” [8] was 23.65 ng/mL.

With “LRF Control: luteinizing hormone releasing factor, also referred to as luteinizing hormone releasing hormone; stimulates the secretion of luteinizing hormone (QHWSYGLRPG; Gonadoliberin-1; UniProt P01148 24-33, looked up) [reference compound]” the “LH Value” (LRF alone, Molar Conc. 3.5×10^-10, second experiment) was 40.01 ng/mL and the “LH Value” (LRF alone, Molar Conc. 5×10^-10, first experiment) was 38.48 ng/mL.
